Here are results for 4 compounds from ChEMBL document CHEMBL1143426, “In vivo efficacy of ceftaroline (PPI-0903), a new broad-spectrum cephalosporin, compared with linezolid and vancomycin against methicillin-resistant and vancomycin-intermediate Staphylococcus aureus in a rabbit endocarditis model” (Antimicrob Agents Chemother, 2007).

Data set [1] deals with Staphylococcus aureus. Briefly: Bactericidal activity against vancomycin-intermediate Staphylococcus aureus by microdilution technique. It is filed as functional. A general note: Dilution methods test growth across graded concentrations, often in twofold steps.
The subject of data set [2] is Staphylococcus aureus. The experiment in a line: Bactericidal activity against methicillin-resistant Staphylococcus aureus SA2 by microdilution technique. The format is functional.
Data set [3] in a line: Cmax in rabbit plasma at 58 mg/kg infused every 12 hrs for 4 days. It is filed as ADME, organism-based, Oryctolagus cuniculus. Conditions: iv. More on the design: dose 58 mg/kg.
Data set [4] in a line: AUC in rabbit plasma at 58 mg/kg infused every 12 hrs for 4 days. Conditions: iv. Also on record: dose 58 mg/kg. The format is ADME, organism-based, Oryctolagus cuniculus.
Data set [5] relates to Staphylococcus aureus. The experiment in a line: Bactericidal activity against vancomycin-intermediate Staphylococcus aureus in rabbit endocarditis model assessed per gram of aortic vegetation at 58 mg/kg infused every 12 hrs for 4 days measured after 48 hrs. The format is functional, Aorta.
For data set [6], the system named is Staphylococcus aureus. Briefly: Bactericidal activity against vancomycin-intermediate Staphylococcus aureus in rabbit endocarditis model assessed as growth inhibition at 58 mg/kg infused every 12 hrs for 4 days measured after 48 hrs. It is filed as functional. Conditions: read-out: GI.
Data set [7] deals with Staphylococcus aureus. Briefly: Bactericidal activity against methicillin-resistant Staphylococcus aureus SA2 in rabbit endocarditis model assessed as growth inhibition at 58 mg/kg infused every 12 hrs for 4 days measured after 48 hrs. It is filed as functional. Conditions: read-out: GI.
Data set [8] concerns Staphylococcus aureus. Briefly: Bactericidal activity against methicillin-resistant Staphylococcus aureus SA2 in rabbit endocarditis model assessed per gram of aortic vegetation at 58 mg/kg infused every 12 hrs for 4 days measured after 48 hrs. It is filed as functional, Aorta.
The nature of data set [9]: Half life in rabbit plasma at 58 mg/kg infused every 12 hrs for 4 days. It is filed as ADME, organism-based, Oryctolagus cuniculus. Conditions: iv. Also on record: dose 58 mg/kg.
Data set [10] has as its system Oryctolagus cuniculus. Briefly: Plasma concentration in rabbit at 58 mg/kg infused every 12 hrs for 4 days. Conditions: in vivo, iv. The format is ADME, organism-based. More on the design: dose 58 mg/kg.
Data set [11] relates to Citrobacter freundii. Briefly: Antibacterial activity against Citrobacter freundii. It is filed as functional, organism-based.
For data set [12], the system named is Moraxella catarrhalis. The experiment in a line: Antibacterial activity against Moraxella catarrhalis. It is filed as functional, organism-based.
Data set [13] deals with Morganella morganii. Briefly: Antibacterial activity against Morganella morganii. It is filed as functional, organism-based.
Data set [14] in a line: Protein binding in rabbit plasma. The format is ADME, cell-free, Oryctolagus cuniculus. The settings on record: read-out: PPB.
Data set [15] concerns Haemophilus influenzae. The experiment in a line: Antibacterial activity against Haemophilus influenzae. It is filed as functional, organism-based.
Data set [16] concerns Escherichia coli. The experiment in a line: Antibacterial activity against Escherichia coli. The format is functional, organism-based.
Data set [17] relates to Neisseria meningitidis. Briefly: Antibacterial activity against Neisseria meningitidis. It is filed as functional, organism-based.
The subject of data set [18] is Klebsiella pneumoniae. The experiment in a line: Antibacterial activity against Klebsiella pneumoniae. The format is functional, organism-based.
The test system of data set [19] is Staphylococcus aureus. The experiment in a line: Bactericidal activity against vancomycin-intermediate Staphylococcus aureus in rabbit endocarditis model at 4 times MIC after 48 hrs. It is filed as functional, organism-based.
In data set [20] the test system is Staphylococcus aureus. Briefly: %T>MIC in vancomycin-intermediate Staphylococcus aureus in rabbit endocarditis model. Conditions: in vivo.
Data set [21] concerns Staphylococcus aureus. The experiment in a line: %T>MIC in methicillin-resistant Staphylococcus aureus in mouse thigh/lung infection model. It is filed as ADME, organism-based. Conditions: in vivo.
The test system of data set [22] is Staphylococcus aureus. Briefly: %T>MIC in methicillin-resistant Staphylococcus aureus SA2 in rabbit endocarditis model. The settings on record: in vivo.
For data set [23], the system named is Staphylococcus aureus. Briefly: Bactericidal activity against methicillin-resistant Staphylococcus aureus SA2 in rabbit endocarditis model at 4 times MIC after 48 hrs. The format is functional, organism-based.
Data set [24] deals with Pseudomonas aeruginosa. Briefly: Antibacterial activity against Pseudomonas aeruginosa. The format is functional.
Data set [25] in a line: Protein binding in human plasma. The format is ADME, cell-free. The settings on record: read-out: PPB.

Values after ≈ are worked out from the molar mass of the structure shown. Active and inactive are the calls of the source. Bounds are passed on as bounds.

With `COc1cccc(OC)c1C(=O)N[C@@H]1C(=O)N2[C@@H]1SC(C)(C)[C@@H]2C(=O)O` [METHICILLIN], the MIC – broadly, the least concentration at which growth counts as inhibited – in data set [1] is > 1020 µg/mL; in data set [2], 128 µg/mL (≈ 336 µM).

Take `CC(=O)NC[C@H]1CN(c2ccc(N3CCOCC3)c(F)c2)C(=O)O1` [LINEZOLID]: in data set [3], the Cmax – broadly, the peak of the concentration-time curve – came to 19600 ng/mL. The AUC (as a rule, the area under the concentration-time curve, a measure of exposure) in data set [4] is 137 µg·h/mL. The MBC (as a rule, the smallest concentration meeting the test's criterion for killing) is 16 µg/mL (≈ 47.4 µM) in [1] and > 64 µg/mL in data set [2]. Further, the MIC in [1] was 1 µg/mL (≈ 2.96 µM). For the same compound, the log10cfu worked out at 6.9 in [5] and 7.1 in [8]. In addition, the inhibition in vivo at 58 mg/kg in data set [6] and in [7] was 0% throughout. For the same compound, the half-life – broadly, the time in which the quantity being followed falls by half – in [9] was 3.3 h.

Take `CN[C@H](CC(C)C)C(=O)N[C@H]1C(=O)N[C@@H](CC(N)=O)C(=O)N[C@H]2C(=O)N[C@H]3C(=O)N[C@H](C(=O)N[C@H](C(=O)O)c4cc(O)cc(O)c4-c4cc3ccc4O)[C@H](O)c3ccc(c(Cl)c3)Oc3cc2cc(c3O[C@@H]2O[C@H](CO)[C@@H](O)[C@H](O)[C@H]2O[C@H]2C[C@](C)(N)[C@H](O)[C@H](C)O2)Oc2ccc(cc2Cl)[C@H]1O` [VANCOMYCIN]: the MBC in [1] was determined as 8 µg/mL (≈ 5.52 µM); in data set [2], 2 µg/mL (≈ 1.38 µM). The log10cfu is on record as 6.7 in data set [5] and 2.7 in data set [8]. The Cp in [10] turned out to be 23100 ng/mL. In addition, the inhibition in vivo at 58 mg/kg in [6] was found to be 0%; in data set [7], 67%.

With `CCO/N=C(\C(=O)N[C@@H]1C(=O)N2C(C(=O)[O-])=C(Sc3nc(-c4cc[n+](C)cc4)cs3)CS[C@H]12)c1nsc(NP(=O)(O)O)n1` [CEFTAROLINE FOSAMIL], the result in data set [11], in data set [12], in data set [13], in [15], in [16] and in [17] was Active. In addition, the outcome in data set [18], in data set [19] and in [23] was Active. Besides, the fraction unbound in [14] and in data set [25] was > 0.8 in each case. The MBC in [1] is 2 µg/mL (≈ 2.92 µM); in [2], 1 µg/mL (≈ 1.46 µM). In addition, the MIC is 2 µg/mL (≈ 2.92 µM) in data set [1] and 1 µg/mL (≈ 1.46 µM) in data set [2]. The figures for the log10cfu in data set [5] and in [8] were 3 and 2.5, respectively. For the same compound, the inhibition in vivo at 58 mg/kg in data set [6] was found to be 60%; in data set [7] it was 90%. Moreover, the “T>MIC” value came to 62% in data set [20], 33% in [21] and 75% in data set [22]. Moreover, the MIC90 (as a rule, an inhibitory concentration at the 90% level, which refers to growth in some studies and to a panel of isolates in others) in data set [24] was > 32 µg/mL.
